Literature values as cited in US8048850B2, “Covalent conjugates between artemisinin-related endoperoxides and iron-carrying proteins and methods of use” (University of Washington, priority 2002, dated 2011).

Settings: cancer patient; oral dose of 50 mg per day; intramuscular dose of 60 mg/day; period of 9 months

In the case of `C[C@H]1[C@H](OC(=O)CCC(=O)O)O[C@@H]2O[C@@]3(C)CC[C@H]4[C@H](C)CC[C@@H]1[C@@]24OO3` [artesunate], the adverse side effects is listed as “No apparent adverse side effects”.
